The values below come from DBAASP.

Converted amounts (≈) assume the structure as drawn.

Holding throughout (assay): ≥ marks a high value that may be exact or a test limit, other limits are often not marked, values filed in µg/mL are converted to µM
For assay [1], the system named is Escherichia coli ATCC 8739.
Assay [2] has as its system Staphylococcus aureus ATCC 25923.
In a further assay the test system is Escherichia coli JW0013.
Assay [3] has as its system Staphylococcus aureus ATCC 6538.
Assay [4] deals with Staphylococcus aureus ATCC 43300.
The test system of assay [5] is Bacillus subtilis ATCC 6633.

In general, MIC refers to the lowest concentration found to suppress growth. A lower MIC goes with greater potency. `CC[C@H](C)[C@H](NC(=O)[C@H](C)NC(=O)[C@H](CC(N)=O)NC(=O)[C@@H](N)CCSC)C(=O)N[C@@H](CC(N)=O)C(=O)N[C@@H](Cc1ccccc1)C(=O)N[C@H](C(=O)N[C@@H](CS)C(=O)N[C@H](C(=O)N[C@H](C(=O)N[C@@H](Cc1cnc[nH]1)C(=O)N[C@@H](CCCCN)C(=O)N[C@@H](CCCCN)C(=O)N[C@H](C(=O)N[C@@H](C)C(=O)N[C@H](C(=O)N[C@@H](CO)C(=O)N[C@H](C(=O)O)C(C)C)[C@@H](C)CC)C(C)C)C(C)C)[C@@H](C)O)[C@@H](C)O` [MNAINFTCTVHKKVAISV]: the MIC in assay [1] is at least 130 µM; in assay [2], above 130 µM.
Regarding `CC[C@H](C)[C@H](NC(=O)[C@H](CCCN=C(N)N)NC(=O)[C@H](CCCN=C(N)N)NC(=O)[C@@H]1CCCN1C(=O)[C@@H]1CCCN1C(=O)[C@H](CCCN=C(N)N)NC(=O)[C@@H]1CCCN1C(=O)[C@H](CCCN=C(N)N)NC(=O)[C@@H]1CCCN1C(=O)[C@H](CC(C)C)NC(=O)[C@H](Cc1ccc(O)cc1)NC(=O)[C@@H]1CCCN1C(=O)[C@@H]1CCCN1C(=O)[C@H](CCCCN)NC(=O)[C@H](CC(=O)O)NC(=O)[C@@H](N)CCCN=C(N)N)C(=O)N[C@@H](Cc1ccc(O)cc1)C(=O)N[C@@H](CC(N)=O)C(=O)N[C@@H](CCCN=C(N)N)C(N)=O` [RDKPPYLPRPRPPRRIYNR], the MIC against Escherichia coli JW0013 came out at 1.96 µM (≈ 4.8 µg/mL).
On the same count and under the same terms, under `CC[C@H](C)[C@H](NC(=O)[C@H](CCCCN)NC(=O)[C@@H](N)CCCN=C(N)N)C(=O)N[C@@H](CCCN=C(N)N)C(=O)N1CCC[C@H]1C(=O)N[C@@H](CCCN=C(N)N)C(=O)N1CCC[C@H]1C(=O)N1CCC[C@H]1C(=O)N[C@@H](CCCN=C(N)N)C(=O)N[C@@H](CC(C)C)C(=O)N1CCC[C@H]1C(=O)N[C@@H](CCCN=C(N)N)C(=O)N1CCC[C@H]1C(=O)N[C@@H](CCCN=C(N)N)C(=O)N1CCC[C@H]1C(=O)N[C@@H](CCCN=C(N)N)C(=O)O` [RKIRPRPPRLPRPRPR] stands 0.3 µM (≈ 0.615 µg/mL).
Consider `CC[C@H](C)[C@@H]1NC(=O)[C@H](CCCCN)NC(=O)[C@@H](NC(=O)[C@H](CO)NC(=O)[C@H](CC(C)C)NC(=O)[C@H](C)NC(=O)[C@H](CC(N)=O)NC(=O)[C@H](CC(C)C)NC(=O)[C@@H](NC(=O)[C@H](CO)NC(=O)[C@@H](NC(=O)CNC(=O)[C@H](C)NC(=O)[C@H](CO)NC(=O)[C@H](CCCCN)NC(=O)[C@H](C)NC(=O)[C@H](C)NC(=O)[C@H](CC(N)=O)NC(=O)[C@@H](NC(=O)[C@H](C)NC(=O)[C@H](CC(C)C)NC(=O)[C@H](CC(N)=O)NC(=O)[C@H](CCCCN)NC(=O)[C@H](Cc2ccccc2)NC(=O)[C@@H](NC(=O)[C@H](CC(=O)O)NC(=O)[C@H](CC(C)C)NC(=O)[C@H](CC(C)C)NC(=O)[C@@H](N)CO)[C@@H](C)O)C(C)C)C(C)C)C(C)C)CSSC[C@@H](C(=O)O)NC(=O)[C@H]([C@@H](C)O)NC(=O)[C@H](CCCN=C(N)N)NC(=O)[C@H](CO)NC1=O` [SLLDTFKNLAVNAAKSAGVSVLNALSCKISRTC], for which the MIC in assay [3] is 12.5 µM (≈ 42.4 µg/mL); in assay [4], 100 µM (≈ 339 µg/mL); in assay [1], at least 50 µM; in assay [5] it was 12.5 µM (≈ 42.4 µg/mL).
As for `CC[C@H](C)[C@H](NC(=O)[C@H](CC(C)C)NC(=O)[C@H](CC(C)C)NC(=O)[C@H](CC(=O)O)NC(=O)[C@H](CCCCN)NC(=O)[C@@H](NC(=O)[C@@H](NC(=O)CNC(=O)[C@H](CC(C)C)NC(=O)[C@@H](NC(=O)[C@@H](N)CO)C(C)C)[C@@H](C)O)C(C)C)C(=O)NCC(=O)N[C@@H](C)C(=O)NCC(=O)N[C@@H](CCCCN)C(=O)N[C@@H](CO)C(=O)N[C@@H](C)C(=O)N[C@@H](C)C(=O)N[C@@H](CCC(N)=O)C(=O)N[C@@H](CO)C(=O)N[C@H](C(=O)N[C@@H](CC(C)C)C(=O)N[C@H](C(=O)N[C@H](C(=O)N[C@@H](CC(C)C)C(=O)N[C@@H](CO)C(=O)N[C@H]1CSSC[C@@H](C(=O)O)NC(=O)[C@H](CO)NC(=O)[C@H](CC(N)=O)NC(=O)[C@H](CO)NC(=O)[C@H](CC(C)C)NC(=O)[C@H](CCCCN)NC1=O)[C@@H](C)O)[C@@H](C)O)C(C)C` [SVLGTVKDLLIGAGKSAAQSVLTTLSCKLSNSC], the values for the MIC in assay [3] and in assay [1] were 25 µM (≈ 81.6 µg/mL) and at least 50 µM, respectively.
Compound `CC[C@H](C)[C@H](NC(=O)[C@H](CCCN=C(N)N)NC(=O)[C@H](CCCN=C(N)N)NC(=O)[C@@H]1CCCN1C(=O)[C@@H]1CCCN1C(=O)[C@H](CCCN=C(N)N)NC(=O)[C@H](CCCCN)NC(=O)[C@H](CCCN=C(N)N)NC(=O)[C@@H]1CCCN1C(=O)[C@H](CC(C)C)NC(=O)[C@H](Cc1ccc(O)cc1)NC(=O)[C@H](Cc1cnc[nH]1)NC(=O)[C@H](CCCCN)NC(=O)[C@H](CCCCN)NC(=O)[C@H](CC(=O)O)NC(=O)[C@@H](N)C(C)C)C(=O)N[C@@H](Cc1ccc(O)cc1)C(=O)N[C@@H](CC(N)=O)C(=O)N[C@@H](CCCN=C(N)N)C(N)=O` [VDKKHYLPRKRPPRRIYNR] registered an MIC in the assay on Escherichia coli JW0013 of 0.682 µM (≈ 1.7 µg/mL).
In the assay on Escherichia coli JW0013, `CC[C@H](C)[C@H](NC(=O)[C@H](CCCN=C(N)N)NC(=O)[C@H](CCCN=C(N)N)NC(=O)[C@@H]1CCCN1C(=O)[C@@H]1CCCN1C(=O)[C@H](CCCN=C(N)N)NC(=O)[C@H](CCCN=C(N)N)NC(=O)[C@H](CCCN=C(N)N)NC(=O)[C@@H]1CCCN1C(=O)[C@H](CC(C)C)NC(=O)[C@H](Cc1ccc(O)cc1)NC(=O)[C@H](Cc1cnc[nH]1)NC(=O)[C@H](CCCCN)NC(=O)[C@H](CCCCN)NC(=O)[C@H](CC(=O)O)NC(=O)[C@@H](N)C(C)C)C(=O)N[C@@H](Cc1ccc(O)cc1)C(=O)N[C@@H](CC(N)=O)C(=O)N[C@@H](CCCN=C(N)N)C(N)=O` [VDKKHYLPRRRPPRRIYNR] registered an MIC of 0.952 µM (≈ 2.4 µg/mL).
In turn, `CC[C@H](C)[C@H](NC(=O)[C@H](CCCN=C(N)N)NC(=O)[C@H](CCCN=C(N)N)NC(=O)[C@@H]1CCCN1C(=O)[C@@H]1CCCN1C(=O)[C@H](CCCN=C(N)N)NC(=O)[C@@H]1CCCN1C(=O)[C@H](CCCN=C(N)N)NC(=O)[C@@H]1CCCN1C(=O)[C@H](CCCN=C(N)N)NC(=O)[C@H](Cc1ccc(O)cc1)NC(=O)[C@H](Cc1cnc[nH]1)NC(=O)[C@H](CCCCN)NC(=O)[C@H](CCCCN)NC(=O)[C@H](CC(=O)O)NC(=O)[C@@H](N)C(C)C)C(=O)N[C@@H](Cc1ccc(O)cc1)C(=O)N[C@@H](CC(N)=O)C(=O)N[C@@H](CCCN=C(N)N)C(N)=O` [VDKKHYRPRPRPPRRIYNR] gave an MIC with Escherichia coli JW0013 of 0.639 µM (≈ 1.6 µg/mL).
On the same count and under the same terms, for `CC[C@H](C)[C@H](NC(=O)[C@H](CCCN=C(N)N)NC(=O)[C@H](CCCN=C(N)N)NC(=O)[C@@H]1CCCN1C(=O)[C@@H]1CCCN1C(=O)[C@H](CCCN=C(N)N)NC(=O)[C@H](CCCCN)NC(=O)[C@H](CCCN=C(N)N)NC(=O)[C@@H]1CCCN1C(=O)[C@H](CC(C)C)NC(=O)[C@H](Cc1ccc(O)cc1)NC(=O)[C@@H]1CCCN1C(=O)[C@H](CCCCN)NC(=O)[C@H](CCCCN)NC(=O)[C@H](CC(=O)O)NC(=O)[C@@H](N)C(C)C)C(=O)N[C@@H](Cc1ccc(O)cc1)C(=O)N[C@@H](CC(N)=O)C(=O)N[C@@H](CCCN=C(N)N)C(N)=O` [VDKKPYLPRKRPPRRIYNR] the value was 0.489 µM (≈ 1.2 µg/mL); for `CC[C@H](C)[C@H](NC(=O)[C@H](CCCN=C(N)N)NC(=O)[C@H](CCCN=C(N)N)NC(=O)[C@@H]1CCCN1C(=O)[C@@H]1CCCN1C(=O)[C@H](CCCN=C(N)N)NC(=O)[C@@H]1CCCN1C(=O)[C@H](CCCN=C(N)N)NC(=O)[C@@H]1CCCN1C(=O)[C@H](CC(C)C)NC(=O)[C@H](Cc1ccc(O)cc1)NC(=O)[C@H](CCCN=C(N)N)NC(=O)[C@@H]1CCCN1C(=O)[C@H](CCCCN)NC(=O)[C@H](CC(=O)O)NC(=O)[C@@H](N)C(C)C)C(=O)N[C@@H](Cc1ccc(O)cc1)C(=O)N[C@@H](CC(N)=O)C(=O)N[C@@H](CCCN=C(N)N)C(N)=O` [VDKPRYLPRPRPPRRIYNR], 1.35 µM (≈ 3.3 µg/mL).
Same read-out and setting: for `CC[C@H](C)[C@H](NC(=O)[C@H](CCCN=C(N)N)NC(=O)[C@H](CCCN=C(N)N)NC(=O)[C@@H]1CCCN1C(=O)[C@@H]1CCCN1C(=O)[C@H](CCCN=C(N)N)NC(=O)[C@H](CCCCN)NC(=O)[C@H](CCCN=C(N)N)NC(=O)[C@@H]1CCCN1C(=O)[C@H](CC(C)C)NC(=O)[C@H](Cc1ccc(O)cc1)NC(=O)[C@H](Cc1cnc[nH]1)NC(=O)[C@H](CCCN=C(N)N)NC(=O)[C@H](CCCCN)NC(=O)[C@H](CC(=O)O)NC(=O)[C@@H](N)C(C)C)C(=O)N[C@@H](Cc1ccc(O)cc1)C(=O)N[C@@H](CC(N)=O)C(=O)N[C@@H](CCCN=C(N)N)C(N)=O` [VDKRHYLPRKRPPRRIYNR] the value was 0.635 µM (≈ 1.6 µg/mL); for `CC[C@H](C)[C@H](NC(=O)[C@H](CCCN=C(N)N)NC(=O)[C@H](CCCN=C(N)N)NC(=O)[C@@H]1CCCN1C(=O)[C@@H]1CCCN1C(=O)[C@H](CCCN=C(N)N)NC(=O)[C@H](CCCCN)NC(=O)[C@H](CCCN=C(N)N)NC(=O)[C@@H]1CCCN1C(=O)[C@H](CC(C)C)NC(=O)[C@H](Cc1ccc(O)cc1)NC(=O)[C@@H]1CCCN1C(=O)[C@H](CCCN=C(N)N)NC(=O)[C@H](CCCCN)NC(=O)[C@H](CC(=O)O)NC(=O)[C@@H](N)C(C)C)C(=O)N[C@@H](Cc1ccc(O)cc1)C(=O)N[C@@H](CC(N)=O)C(=O)N[C@@H](CCCN=C(N)N)C(N)=O` [VDKRPYLPRKRPPRRIYNR], 0.685 µM (≈ 1.7 µg/mL).
The same measure, in the same setting: for `CC[C@H](C)[C@H](NC(=O)[C@H](CCCN=C(N)N)NC(=O)[C@H](CCCN=C(N)N)NC(=O)[C@@H]1CCCN1C(=O)[C@@H]1CCCN1C(=O)[C@H](CCCN=C(N)N)NC(=O)[C@@H]1CCCN1C(=O)[C@H](CCCN=C(N)N)NC(=O)[C@@H]1CCCN1C(=O)[C@H](CC(C)C)NC(=O)[C@H](Cc1ccc(O)cc1)NC(=O)[C@@H]1CCCN1C(=O)[C@@H]1CCCN1C(=O)[C@H](CCCCN)NC(=O)[C@H](CCCCN)NC(=O)[C@@H](N)C(C)C)C(=O)N[C@@H](Cc1ccc(O)cc1)C(=O)N[C@@H](CC(N)=O)C(=O)N[C@@H](CCCN=C(N)N)C(N)=O` [VKKPPYLPRPRPPRRIYNR] the value was 1.37 µM (≈ 3.3 µg/mL).
